pEC50: −log10 of the molar value.
Tests used:
[1] = biological target: T1, THRβ LBD (His-GST-dLBT-THRβLBD) (Homo sapiens, UniProt P10828); assay: THR-FRET (time-resolved fluorescence resonance energy transfer) agonist activity assay, THRβ; type: biochemical; conditions: for pEC50: 24 h at room temperature; for Selectivity (THRα/THRβ): ratio of EC50 THRα/THRβ
T1 construct: made in house; host or cells: E. coli BL21 (DE3)
T1 sequence (P10828 217-461 limits assumed): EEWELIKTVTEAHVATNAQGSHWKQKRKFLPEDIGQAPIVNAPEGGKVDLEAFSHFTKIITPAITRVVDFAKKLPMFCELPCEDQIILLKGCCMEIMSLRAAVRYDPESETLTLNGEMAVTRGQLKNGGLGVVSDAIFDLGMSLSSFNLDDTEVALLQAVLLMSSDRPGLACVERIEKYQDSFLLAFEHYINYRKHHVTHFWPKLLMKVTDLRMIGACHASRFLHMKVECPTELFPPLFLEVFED
Description: (§1) Experimental Example 1: Detection of Agonist Activities of Compounds Against THRα/β Based on Time-Resolved Fluorescence Resonance Energy Transfer (THR-FRET)
(§2) 1. Construction of THRα/β Overexpression Vectors
(§3) By visiting NCBI, the THRα/β LBD domain sequences were found. The pET21-His-GST-dLBT-THRα LBD and pET21-His-GST-dLBT-THRβLBD overexpression vectors were constructed by the fusion method, and sequenced to confirm the accuracy of the sequences.
(§4) 2. Prokaryotic Expression of Recombinant Proteins in E. coli
(§5) The THRα LBD and THRβLBD overexpression vectors confirmed by sequencing were transfected into E. coli cells BL21 (DE3), and spread on an ampicillin-resistant agar plate. Monoclones were picked out and amplified in an LB medium, and transferred into 1 L LB at a ratio of 1:100 for large-scale culture. When the OD value was at 0.8 to 1.2, 0.5 mM isopropyl-beta-D-thiogalactopyranoside (IPTG) was added, and induced overnight at 18° C. The bacteria were harvested, disrupted, and purified via the GST column and the molecular sieve to obtain two proteins His-GST-dLBT-THRα LBD and His-GST-dLBT-THRβLBD.
(§6) 3. Preparation of Compounds and Formulation of Reaction System
(§7) The proteins were taken out from a refrigerator at −80° C. The protein s with the GST-tagged THRα/p LBD domain and the Eu-labelled GST antibodies were thawed slowly on ice, and an assay buffer containing a final concentration of 5 mM dithiothreitol (DTT) was formulated.
(§8) 3.1 Preparation of Compounds
(§9) The starting concentration of the compound was 10 μM (in DMSO). The compound (100 μM in DMSO) was subjected to 3-fold isogradient dilution with DMSO to obtain a total of 11 isogradient concentrations. Subsequently, the above compounds at the isogradient concentration were further subjected to 50-fold dilution with an assay buffer containing 5 mM DTT.
(§10) 3.2 Formulation of THR-FRET Reaction System
(§11) The final concentrations of all components were calculated based on a system with a final volume of 20 µL per well. To […] of assay buffer containing 5 mM DTT, the GST-tagged THRα/β proteins, the SRC2 ([…]) polypeptide, XL665 (Cisobio, #610SAXLB), and the Eu-labeled GST antibody were added, and the final concentrations were 2 nM, 200 nM, 0.05 nM, and 7.6 nM respectively to formulate 18 μL of reaction mixture of the proteins, polypeptide, and antibody per well.
(§12) 18 μL of reaction mixture and 2 μL of diluted compound were added into an optiplate-384-well plate, and reacted at room temperature for 24 h.
(§13) The plate was read using an MD i3x multi-mode microplate reader with the excitation and emission wavelengths of 340 nm and 665 nm, respectively. The intensity of light at a wavelength of 616 nm generated by europium excited by 340 nm wavelength light from the MD i3x multi-mode microplate reader was used as the background. According to the different activation degrees of different compounds against THRα and THRβ, the intensity of the emission light at a wavelength of 665 nm generated by exciting XL665 with the exciting light at a wavelength of 616 nm was varied. The intensity ratio between these two light wavelengths (665 nm, 616 nm) was used as the activation activity of the compound against THRα or THRβ, and was normalized against the ratio in the vehicle DMSO group. The dose-response curve was fitted with four parameters using the GraphPad Prism 6.0 software, and the EC50 value was calculated.

THRβ (pGAL4-THRβ-LBD) = biological target: T2, THRβ (pGAL4-THRβ-LBD) (Homo sapiens, UniProt P10828); assay: Reporter gene (Dual-Glo luciferase) agonist activity assay in HEK293T cells, THRβ; type: cell-based; conditions: ratio of EC50 THRα/THRβ
T2 construct: expressed in transfected cells; host or cells: HEK293T
T2 sequence (P10828 217-461): T1 sequence (P10828 217-461 limits assumed)
Description: Experimental Example 2: Detection of Agonist Activities of Compounds Against THRα and THRβ Based on Reporter Gene Activity Assay Method
1.1 Construction and Preparation of Plasmids pGAL4-THR-LBD and pG5-Luc
The pGAL4-THRα-LBD and pGAL4-THRβ-LBD plasmids used in the reporter gene assay system were constructed by a conventional molecular cloning method comprising the following main steps: the cDNA sequences of THRα (NM_003250) and THRβ(NM_000461) corresponding to the amino acid sequences of THRα (163-407AA) and THRβ(217-461AA) were inserted into the BamHI and NotI enzyme digestion sites of the pGAL4 vector by the PCR technique respectively to obtain the pGAL4-THRα-LBD and pGAL4-THRβ-LBD plasmids; the pG5-Luc (#E249A) and pRL-TK (#E2241) plasmids were purchased from Promega; the plasmids were transfected into the E. coli DH5a by the CaCl2 method, and after further culture and amplification, the plasmids were purified by Plasmid Extraction Kits (TIANGEN, #D107) to obtain the corresponding plasmid DNAs.
1.2 Co-Transfection of Plasmids into HEK293T Cells and Treatment with Compounds
The HEK293T cells were inoculated into a 96-well plate at a density of 1×10^4/well the day before plasmid transfection. Cell transfection was conducted according to the instructions of the transfection reagent FuGENE® HD (Promega, #E2311). The main steps were as follows: taking one well as an example here, the plasmids pGAL4-THRα-LBD or pGAL4-THRβ-LBD, pG5-Luc, and pRL-TK were added in the proportions of 20 ng, 50 ng, and 5 ng to 10 μL of Opti-MEM™ I medium (Gibco, #11058021) and mixed well; subsequently, 0.25 μL of FuGENE® HD was added, mixed well, and then left at room temperature for 5 min; afterwards, […] was added to the cell wells containing 100 μL of culture medium. After cell co-transfection for 6 h, the compound was diluted in a 3-fold gradient with dimethyl sulfoxide at the highest concentration of 1 μM. The compound was added to the cell culture medium at a total of 10 concentrations for treatment for 24 h. There were a total of two duplicate wells for each concentration. Triiodothyronine (T3) was used as the positive control.
1.3 Dual-Glo Luciferase Assay
After the cells were treated with the compound for 24 h, the cells were assayed according to the instructions of Dual-Glo® Luciferase Assay System (Promega, #E2940). The main steps were as follows: 50 μL of culture medium was aspirated from each well and discarded, and then 50 μL of Dual-Glo® Luciferase reagent was added and oscillated at room temperature for 10 min; 80 μL of lysis reaction solution was measured into a white opaque optiPlate-96-well plate, and the luminescence signal value (Firefly-Luc) of the Firefly luciferase was detected using an MD i3x multi-mode microplate reader; 40 μL of Dual-Glo® Stop & Glo® reagent was then added, and oscillated at room temperature for 10 min; the luminescence signal value (Renilla-Luc) of the Renilla luciferase was then detected using an MD i3x multi-mode microplate reader. The Firefly-Luc/Renilla-Luc ratio was used as the activation activity of the compound against THR, and was normalized against the ratio in the vehicle DMSO group; the dose-response curve was fitted with four parameters using the GraphPad Prism6.0 software, and the EC50 value was calculated.

[2] = biological target: T3, THRα LBD (His-GST-dLBT-THRα LBD) (Homo sapiens, UniProt P10827); assay: THR-FRET (time-resolved fluorescence resonance energy transfer) agonist activity assay, THRα; type: biochemical; conditions: 24 h at room temperature
T3 construct: made in house; host or cells: E. coli BL21 (DE3)
T3 sequence (P10827 163-407 isoform P10827-2): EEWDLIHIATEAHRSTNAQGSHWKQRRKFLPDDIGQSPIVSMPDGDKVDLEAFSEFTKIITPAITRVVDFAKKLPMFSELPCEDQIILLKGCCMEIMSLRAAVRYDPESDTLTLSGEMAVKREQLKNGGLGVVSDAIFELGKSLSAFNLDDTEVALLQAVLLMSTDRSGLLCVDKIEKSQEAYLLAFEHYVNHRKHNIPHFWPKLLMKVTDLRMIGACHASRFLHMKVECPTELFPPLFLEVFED
Description: as §1, §2, §3, §4, §5, §6, §7, §8, §9, §10, §11, §12, §13

SMILES	pEC50 [1]	Selectivity (THRα/THRβ) [1]	Selectivity (THRα/THRβ) (THRβ (pGAL4-THRβ-LBD))	pEC50 [2]
C=Cc1nn(-c2cc(Cl)c(Cn3ccc(=O)c4ccccc43)c(Cl)c2)c(=O)[nH]c1=O [Compound 35]	6.00 to 7.00	†† (10 > THRα/β > 1)	† (5 ≥ THRα/β)	5.00 to 6.00
O=c1cnn(-c2cc(Cl)c(Cn3ccc(=O)c4ccccc43)c(Br)c2)c(=O)[nH]1 [Compound 3]	6.00 to 7.00	†† (10 > THRα/β > 1)	† (5 ≥ THRα/β)	6.00 to 7.00
O=c1cnn(-c2cc(Cl)c(Cn3ccc(=O)c4ccccc43)c(Cl)c2)c(=O)[nH]1 [Compound 1]	6.00 to 7.00	†† (10 > THRα/β > 1)	† (5 ≥ THRα/β)	5.00 to 6.00
O=c1cnn(-c2cc(Cl)c(Cn3ccc(=O)c4c(Cl)cccc43)c(Cl)c2)c(=O)[nH]1 [Compound 13]	6.00 to 7.00	†† (10 > THRα/β > 1)	† (5 ≥ THRα/β)	5.00 to 6.00
Nc1nn(-c2cc(Cl)c(Cn3ccc(=O)c4ccccc43)c(Cl)c2)c(=O)[nH]c1=O [Compound 32]	6.00 to 7.00	†† (10 > THRα/β > 1)	† (5 ≥ THRα/β)	5.00 to 6.00
Cc1cccc2c1c(=O)ccn2Cc1c(Br)cc(-n2ncc(=O)[nH]c2=O)cc1Br [Compound 18]	> 7.30	†† (10 > THRα/β > 1)	†† (10 ≥ THRα/β > 5)	7.00 to 7.30
[2H]C(c1c(Br)cc(-n2nc(C(F)F)c(=O)[nH]c2=O)cc1Br)n1ccc(=O)c2ccccc21 (stereo not shown) [Compound 72]	> 7.30	†† (10 > THRα/β > 1)	††† (20 ≥ THRα/β > 10)	7.00 to 7.30
Cc1cccc2c1c(=O)ccn2Cc1c(Cl)cc(-n2ncc(=O)[nH]c2=O)cc1Cl [Compound 14]	6.00 to 7.00	†† (10 > THRα/β > 1)	† (5 ≥ THRα/β)	6.00 to 7.00
O=c1[nH]c(=O)n(-c2cc(Cl)c(Cn3ccc(=O)c4ccccc43)c(Cl)c2)nc1CF [Compound 37]	7.00 to 7.30	†† (10 > THRα/β > 1)	†††† (THRα/β > 20)	6.00 to 7.00
O=c1[nH]c(=O)n(-c2cc(Cl)c(Cn3ccc(=O)c4ccccc43)c(Cl)c2)nc1C(F)F [Compound 28]	> 7.30	†† (10 > THRα/β > 1)	†††† (THRα/β > 20)	6.00 to 7.00
[2H]C(F)(F)c1nn(-c2cc(Br)c(Cn3ccc(=O)c4ccccc43)c(Br)c2)c(=O)[nH]c1=O [Compound 71]	> 7.30	†† (10 > THRα/β > 1)	†††† (THRα/β > 20)	7.00 to 7.30
Cc1cccc2c1c(=O)ccn2Cc1c(Cl)cc(-n2nc(C(F)F)c(=O)[nH]c2=O)cc1Br [Compound 48]	> 7.30	†† (10 > THRα/β > 1)	† (5 ≥ THRα/β)	> 7.30
Cc1cccc2c1c(=O)ccn2Cc1c(Cl)cc(-n2ncc(=O)[nH]c2=O)cc1Br [Compound 17]	> 7.30	†† (10 > THRα/β > 1)	††† (20 ≥ THRα/β > 10)	6.00 to 7.00
Cc1nn(-c2cc(Br)c(Cn3ccc(=O)c4c(C)cccc43)c(Br)c2)c(=O)[nH]c1=O [Compound 45]	> 7.30	†† (10 > THRα/β > 1)	† (5 ≥ THRα/β)	6.00 to 7.00
O=c1[nH]c(=O)n(-c2cc(Br)c(Cn3ccc(=O)c4ccccc43)c(Br)c2)nc1C(F)F [Compound 29]	> 7.30	†† (10 > THRα/β > 1)	†††† (THRα/β > 20)	7.00 to 7.30
Cc1nn(-c2cc(Cl)c(Cn3ccc(=O)c4ccccc43)c(Cl)c2)c(=O)[nH]c1=O [Compound 41]	6.00 to 7.00	†† (10 > THRα/β > 1)	† (5 ≥ THRα/β)	5.00 to 6.00

— patent US20260242350A1, “POLYCYCLIC THYROID HORMONE BETA RECEPTOR AGONIST AND USE THEREOF” (CASCADE PHARMACEUTICALS, INC., priority 2023, published 2026)
